Broadly, the IC50 is the point on the concentration scale where inhibition reaches its midpoint.

Here are results for 2 compounds from US20120135451A1, “Method and Apparatus for Evaluation of Toxicity” (BIOPHOS SA, priority 2009, published 2012).

Each structure is given as a SMILES string. Read-outs that look alike come from different tables or passages of the source.

The assay concerns boar spermatozoa. The assay is described as follows: Toxicity evaluation by motility of boar spermatozoa (Qualisperm). The class given is cell-based. To be noted: 30 minutes incubation, around 60 million/ml boar spermatozoa. As to the method:
Quadruple samples of each test compound were prepared in varying concentrations by serial dilution in a 96 microwell-plate by serial dilution into XCell with DMSO. Equal volumes (50 μl) of boar spermatozoa in a concentration of around 60 million/ml were added to all sample solutions. Subsequently, the microwell plate was shaken and incubated for 30 minutes. The dosing was performed by using an automated TECAN® robot. After the incubation the sample solutions were pipetted on a Leja® slide and the motility of the spermatozoa was analysed using a Qualisperm® apparatus from Biophos AG. A dose response curve was obtained where % motile spermatozoa (all the moving spermatozoa), % progressive spermatozoa (share of spermatozoa above a pre-determined threshold, here: above 25 μm/sec), or mean speed of total motile spermatozoa was plotted as a function of the logarithmic concentration of the test compound expressed in mM. From the dose curve IC50 values were calculated.

With `CC(=O)N1CCN(c2ccc(OCC3COC(Cn4ccnc4)(c4ccc(Cl)cc4Cl)O3)cc2)CC1` (stereo not drawn) [Ketokonazole, Ketoconazole], the IC50 (% motile spermatozoa (all moving spermatozoa), read-out: IC50 % motille) turned out to be 209 µM; the IC50 (% progressive spermatozoa (above 25 μm/sec), read-out: IC50 % progressiv) is 205 µM; the IC50 (mean speed of total motile spermatozoa, read-out: IC50 mean speed) worked out at 197 µM.

Take `CC(C)C(=O)Nc1ccc([N+](=O)[O-])c(C(F)(F)F)c1` [Flutamide]: the IC50 by setting is: (0.5 h, % motile spermatozoa (all moving spermatozoa), read-out: IC50 % motille) 95 µM; (0.5 h, % progressive spermatozoa (above 25 μm/sec), read-out: IC50 % progressiv) 62 µM; (0.5 h, mean speed of total motile spermatozoa, read-out: IC50 mean speed) 72 µM.
